{"source": "patent US20250352523A1", "about": "“TRIPLE PHARMACEUTICAL COMPOSITION FOR PROTEINACEOUS INFECTION” (priority 2024, published 2025)", "origin": "cited, not measured here", "key": {"patients with AD": {"system": "patients with AD", "conditions": "human, in vivo"}, "AD": {"system": "AD", "conditions": "in vivo"}, "AD patients": {"system": "AD patients", "conditions": "twelve months' treatment, versus placebo"}}}
{"smiles": "COc1ccc2cc([C@H](C)C(=O)O)ccc2c1", "note": "[Naproxen]", "values": [{"measurement": "cognitive function in patients with AD", "setting": "patients with AD", "value": "did not improve cognitive function"}]}
{"smiles": "CC(=O)Oc1ccccc1C(=O)O", "note": "[aspirin]", "values": [{"measurement": "beneficial effects on AD", "setting": "AD", "value": "not found to have beneficial effects"}]}
{"smiles": "CC(=O)Nc1ccc(O)cc1", "note": "[Acetaminophen]", "values": [{"measurement": "beneficial effects on AD", "setting": "AD", "value": "not found to have beneficial effects"}]}
{"smiles": "CO[C@H]1/C=C/O[C@@]2(C)Oc3c(C)c(O)c4c(O)c(c(/C=N/N5CCN(C)CC5)c(O)c4c3C2=O)NC(=O)/C(C)=C\\C=C\\[C@H](C)[C@H](O)[C@@H](C)[C@@H](O)[C@@H](C)[C@H](OC(C)=O)[C@@H]1C", "note": "[rifampin]", "values": [{"measurement": "effects on cognition or function in AD", "setting": "AD patients", "value": "no beneficial effects"}]}
